According to patent US20150174207A1, “METHODS FOR TREATING CANCER WITH GHRH AGONISTS” (UNIVERSITY OF MIAMI, priority 2013, published 2015):
“Also recorded” adds a separate entry of the source. Marks after values point to notes of the source that are not given here. [ ]: non-standard residue; d: D form. The star is where a group is joined. Desaminotyrosyl = O=C(CCc1ccc(O)cc1)*; Agmatine = N=C(N)NCCCCN*; Nle = CCCC[C@H](N)C(=O)O; Orn = NCCC[C@H](N)C(=O)O; Abu = CC[C@H](N)C(=O)O

Experiments:
U-87 MG cells [1] = experiment: Cell counting after repeated exposure for 3 wk (Coulter Counter); assay type: cell-based, human; conditions: repeated exposure 3 wk, 1 μM JI-34 daily, DOX weekly at 100 nM; vs. control
Protocol: (§1) U-87 MG cells were cultured in Eagle's minimum essential medium (ATCC) medium [supplemented with 10% FBS (ATCC) and 0.1% penicillin/streptomycin] at 37° C. and 5% CO2 atmosphere. For cell count and cell size determination, […] were seeded into T-25 flasks. The medium was changed two to three times a week. The following treatment in vitro groups were set up: (Group 1) control, vehicle solution; (group 2) JI-34 at 1 μM final concentration, daily; (group 3) DOX at 100 nM final concentration, weekly on Thursdays; and (group 4) JI-34, 1 μM and DOX, 100 nM. After 3 wk, cell count and cell size were determined by Z Series Coulter Counter (Beckman Coulter).

[2] = tested on: U-87 MG, human GBM tumors; experiment: Growth of U-87 MG glioblastoma xenografts in nude mice; assay type: in vivo; conditions: U-87 MG xenografts in nude mice, 6 wk; JI-34 50 μg/kg/d s.c., DOX 13 μmol/kg/wk i.v.; vs. control
Protocol: (§2) Six-wk-old nude mice (Ncr nu/nu) were obtained from the National Cancer Institute (Bethesda, Md.). The animals were housed in sterile cages in a temperature-controlled room with a 12-h light/12-h dark schedule and were fed with autoclaved chow and water, ad libitum. The Institutional Animal Care and Use Committee, VA Medical Center Miami, Fla. fully approved the animal protocols. For the therapy study, 10^6 cells per mouse of the human glioblastoma cell line, U-87 MG (American Type Culture Collection, ATCC), were injected into the flanks of four nude mice (Ncr nu/nu) under isoflurane anesthesia (Baxter). A month later, the resulting tumors were harvested and minced into ˜3 mm^3 pieces and transplanted into flanks of nude mice, under anesthesia, using a minitrocar. When the tumors reached ˜32 mm^3, the mice were randomized into four groups. […] Tumor volume was measured with microcalipers once a week and calculated using the formula: (length×width×height×in)/6. Tumor doubling time was calculated using the formula: [study duration×logarithm (LOG) 2]/(LOG final tumor volume−LOG initial tumor volume). […]

U-87 MG xenografts = experiment: Western blot of necropsied in vivo tumor samples; parameters: species or system nude mice; conditions: xenograft samples after 6 wk treatment
Protocol: Six-wk-old nude mice (Ncr nu/nu) were obtained from the National Cancer Institute (Bethesda, Md.). The animals were housed in sterile cages in a temperature-controlled room with a 12-h light/12-h dark schedule and were fed with autoclaved chow and water, ad libitum. The Institutional Animal Care and Use Committee, VA Medical Center Miami, Fla. fully approved the animal protocols. For the therapy study, 10^6 cells per mouse of the human glioblastoma cell line, U-87 MG (American Type Culture Collection, ATCC), were injected into the flanks of four nude mice (Ncr nu/nu) under isoflurane anesthesia (Baxter). A month later, the resulting tumors were harvested and minced into ˜3 mm^3 pieces and transplanted into flanks of nude mice, under anesthesia, using a minitrocar. When the tumors reached ˜32 mm^3, the mice were randomized into four groups. The animals received the following treatments for 6 wk: (Group 1) control, 16 tumors, vehicle solution; (group 2) agonist JI-34, 1 μg/20 g, s.c., daily, 19 tumors; (group 3) DOX, 260 nmol/20 g, i.v., weekly on Thursdays, 19 tumors; and (group 4) JI-34 (1 μg/20 g daily)+DOX (260 nmol/20 g), 16 tumors. Tumor volume was measured with microcalipers once a week and calculated using the formula: (length×width×height×in)/6. Tumor doubling time was calculated using the formula: [study duration×logarithm (LOG) 2]/(LOG final tumor volume−LOG initial tumor volume). At the end of the experiment, the mice were killed under pentobarbital anesthesia, tumors were excised and weighed; necropsy was performed. Samples free of necrotic debris were immediately snap frozen in liquid nitrogen and stored at −80° C. for further analyses.
Protein from the tumor tissue was isolated using the NucleoSpin kit (Macherey-Nagel). Protein concentrations were determined by NanoDrop (NanoDrop Technologies). Equal amounts of protein were resuspended in sample loading buffer (0.25 M Trizma Base, 8% SDS, 40% glycerol, 0.004% bromophenol blue, 4% P3-mercaptoethanol; pH 6.8), boiled for 3 min and separated by 12% SDS-polyacrylamide gel electrophoresis. Proteins from the gel were then transferred onto nitrocellulose membranes, which were blocked with 50-50% Tris-buffered saline (20 mM Tris.HCl pH 7.5, 150 mM NaCl) and Odyssey blocking buffer for 1 h at room temperature, followed by an overnight incubation at 4° C. with the following primary antibodies: growth hormone-releasing hormone receptor (GHRH-R), (ab28692) nestin (ab92391), glial fibrillary acid protein (GFAP) (ab48050) (all from AbCam), β-actin (A5441; Sigma-Aldrich), or p53 (9282; Cell Signaling Technology). […] The protein bands were quantified using […] (LI-COR Biosciences); integrated density values of triplicate experiments were plotted.

U-87 MG cells [3] = experiment: Multidrug resistance (MDR) assay, calcein retention; assay type: cell-based, human; conditions: JI-34 1 μM pretreatment 24 h, DOX 100 nM, cyclosporin-A 1/1,000 dilution; 1 h; vs. control
Protocol: The multidrug resistance assays were performed according to the manufacturer's instructions (Cayman Chemical). U-87 MG cells were seeded, 5×10^4 cells per well density in 100 μL medium in 96-well, black, clear-bottom plates and grown overnight in a humidified incubator at 37° C. […] Afterward, the cells were incubated for 1 h, then calcein AM/Hoechst dye combined staining solution was added. Fifteen minutes later, both cell density (at excitation and emission wavelengths of 355 nm and 465 nm, respectively) and calcein retention (at excitation and emission wavelengths of 485 nm and 535 nm, respectively) were detected with the help of a Victor3 multilabel counter. Relative calcein retention values were expressed as a function of cell density.

U-87 cell-derived tumors = experiment: Human Cancer PathwayFinder quantitative PCR array of dissected tumor samples; assay type: in vivo, nude mice; conditions: tumors after 6 wk treatment; fold change (ΔΔCt) vs. control
Protocol: as §2
Total RNA was isolated from representative, DNase treated, U-87 MG dissected tumor samples using a NucleoSpin kit according to the manufacturer's instructions (Macherey-Nagel). Four tumor samples from each group were analyzed. The yield and the quality of RNA samples were determined spectrophotometrically using 260 nm, and 260/280- and 260/230-nm ratio. […]
The Human Cancer PathwayFinder quantitative PCR array (PAHS-033A; Qiagen) used in our study contains 84 unique genes related to cell proliferation, apoptosis, cell cycle, angiogenesis, invasion, and metastasis. […] Fold changes in gene expression were calculated using the ΔΔCt method and five stably expressed housekeeping genes (B2M, HPRT1, RPL13A, GAPDH, and ACTB) were used for normalization of the results.

U-87 MG cells [4] = experiment: MTT proliferation assay in vitro; assay type: cell-based, human; conditions: JI-34 1 μM, DOX 100 nM; combination: 24 h JI-34 pretreatment, then DOX+JI-34 48 h
Protocol: For proliferation studies, 104 cells per well were seeded in 100 μL media, in a 96-well plate, and incubated for 24 h in a humidified incubator at 37° C. Then, culture medium was replaced with FBSfree medium (starvation) for 24 h. After 24 h, the cells received full medium containing the following treatments: Groups 1 (control) and 3, vehicle solution; groups 2 and 4, JI-34 (1 μM final concentration). After another 24 h, the cells received the following treatments: group 1, vehicle solution; group 2, JI-34; group 3, DOX (100 nM final concentration); and group 4, JI-34+DOX. Then, they were incubated for 48 h and the effect on cell proliferation was evaluated by using the MTT assay (CellTiter 96 Non-Radioactive Cell Proliferation Assay; Promega), according to the manufacturer's instructions with the help of a Victor3 multilabel counter (Perkin-Elmer).

U-87 MG cells [5] = experiment: ApoLive-Glo Multiplex assay (viability and apoptosis); assay type: cell-based, human; conditions: JI-34 1 μM, DOX 100 nM, after 24 h of treatment
Protocol: Determinations of viability and apoptosis were performed from freshly seeded cell samples (10^4 cells per well, in 100 μL media, in a 96-well plate) with the help of ApoLive-Glo Multiplex Assay (Promega), according to the manufacturer's instructions. First the cells received full medium containing the following treatments: Groups 1 (control) and 3, vehicle solution; groups 2 and 4, JI-34 (1 μM final concentration). After 24 h, the cells received the following treatments: group 1, (vehicle solution); group 2, JI-34; group 3, DOX (100 nM final concentration); and group 4, JI-34+DOX. After another 24 h of incubation, viability reagent was added to the wells and fluorescence was measured by Victor3 multilabel counter. Then Caspase-Glo 3/7 apoptosis reagent was added and luminescence was determined.

U-87 MG cells [6] = experiment: Cell volume determination (intracellular water space, 3-OMG); assay type: cell-based, human; conditions: repeated exposure 3 wk, 1 μM JI-34 daily, DOX weekly at 100 nM; vs. control
Protocol: as §1
Cell volume was estimated by measuring the intracellular water space as follows. Briefly, 1 mM 3-O-methylglucose (3-OMG) and 0.5 μCi/mL [3H]-3-OMG were added to the culture 6 h before the volume assay. At the end of the incubation period, culture medium was aspirated, and an aliquot was saved for radioactivity determination. […] Radioactivity in the cell extracts and media was determined, and an aliquot of the cell extract was used for protein estimation with the Bio-Rad bicinchoninic acid kit. Values were normalized to protein level, and cell volume was expressed as microliters/milligram protein.

U-87 MG cells [7] = experiment: Immunocytochemistry / differentiation in reduced serum-containing medium; assay type: cell-based, human; conditions: JI-34 1 μM, 0.1% FBS-containing medium, 2 d; vs. DMSO control
Protocol: Cells were seeded onto coverslips in six-well plates (50,000 cells per well) in 10% FBS-containing growth medium. This medium was replaced with serum-free medium the following day for 24 h. Thereafter, GHRH agonist (JI-34, 1 μM) was added in medium supplemented with 0.1% FBS and remained for the consecutive 2 d. Control cells received vehicle (DMSO). At the end of the treatment, phase-contrast images of live cells were collected and cells were fixed in ice-cold acetone for 10 min, washed with PBS three times, and blocked with 2% goat serum in PBS for 30 min. GFAP (Abcam; 1:500 dilution) or nestin (BD Transduction Laboratories; 1:75 dilution) antibodies were added in PBS for 1 h. Anti-rabbit and anti-mouse secondary antibodies (Alexa Fluor 488; Jackson Immunoresearch) were also applied for 1 h. Coverslips were mounted in Vectashield mounting medium containing DAPI for nuclear staining (Vector Laboratories). Images were acquired on a Nikon Eclipse Ti fluorescence microscope (Nikon Instruments).

U-87 MG cells [8] = experiment: ELISA of p53, FGF basic and TGFβ; assay type: cell-based, human; conditions: cell culture supernatant, 1 μM JI-34; vs. control
Protocol: Glioblastoma cells (10^5 cells per well) were seeded onto six-well plates, cultured overnight, and then exposed to compounds used in the 3-(4,5-dimethylthiazol-2-yl)-2,5-diphenyltetrazolium bromide proliferation assays: Groups 1 (control) and 3, vehicle solution; groups 2 and 4, GHRH agonists JI-34 (1 μM final concentration). After another 24 h, the cells received the following treatments: Group 1, vehicle solution; group 2, JI-34; group 3, doxorubicin (DOX) (100 nM final concentration); and group 4, JI-34+DOX. Concentrations of the specific proteins in the medium (in the case of FGF basic or TGFβ-1) or in samples of scraped and homogenized cells (in the case of p53) were determined after 24 h using ELISA kits according to the manufacturer's instructions. Human TGFβ and FGF basic ELISA kits were obtained from AbCam, whereas p53 was measured with a PathScan Sandwich ELISA kit (Cell Signaling Technology). Readings were normalized to protein concentrations as determined by NanoDrop (NanoDrop Technologies).

| Compound | decrease in the number of cells (U-87 MG cells [1]) | inhibition of tumor growth [2] | expression of GFAP (U-87 MG xenografts) | expression of the neuroectodermal stem-cell marker nestin (U-87 MG xenografts) | increase in calcein retention (U-87 MG cells [3]) | Relative expression of B-cell lymphoma 2 (Bcl-2) (U-87 cell-derived tumors) | Relative expression of Integrin α3 (CD49C) (U-87 cell-derived tumors) | Relative expression of S100 calcium binding protein A4 (S100-A4) (U-87 cell-derived tumors) | inhibitory effect on proliferation (MTT) (U-87 MG cells [4]) | increase in apoptosis (U-87 MG cells [5]) | decrease in the volume of the cells (intracellular water content) (U-87 MG cells [6]) | GFAP labeling (immunofluorescence) (U-87 MG cells [7]) | nestin level (immunofluorescence) (U-87 MG cells [7]) | increase in GFAP expression (integrated density values) (U-87 MG xenografts; compared with the control) | decrease in level of TGFβ (U-87 MG cells [8]) | decrease in level of bFGF (U-87 MG cells [8]) |
| --- | --- | --- | --- | --- | --- | --- | --- | --- | --- | --- | --- | --- | --- | --- | --- | --- |
| COc1cccc2c1C(=O)c1c(O)c3c(c(O)c1C2=O)C[C@@](O)(C(=O)CO)C[C@@H]3O[C@H]1C[C@H](N)[C@H](O)[C@H](C)O1 [DOX, doxorubicin] | 52% | 35% | decrease | increased | 7% | −1.8* | −1.65* | −2.34* | no significant effect | 182% | 20% |  |  |  |  |  |
| [Dat^1, Orn^12, Abu^15, Orn^21, Nle^27, Asp^28, Agm^29]hGHRH(1-29)NH2 ([Desaminotyrosyl]ADAIFTNSYR[Orn]VL[Abu]QLSAR[Orn]LLQDI[Nle]D[Agmatine]-NH2) [JI-34] | no significant effect |  |  | decreased |  |  |  |  | no significant effect | no effect |  | high levels of GFAP were detected; also recorded: elevation in the intensity of GFAP-labeling | did not change notably; also recorded: did not show a significant change | 70% | 24% | 37% |
